In ChEMBL document CHEMBL3769377, “A synthesis, in silico, in vitro and in vivo study of thieno[2,3-b]pyridine anticancer analogues” (Medchemcomm, 2015):

How the values were obtained:
[1] = target: Serine/threonine-protein kinase pim-1 (Homo sapiens) (UniProt P11309); experiment: Inhibition of human recombinant PIM1 assessed as residual activity at 10 uM after 1 hr by qPCR analysis relative to control
[2] = tested on: Mast/stem cell growth factor receptor Kit (Homo sapiens), P10721 [D816V]; experiment: Inhibition of human recombinant KIT D816V mutant assessed as residual activity at 10 uM after 1 hr by qPCR analysis relative to control
Chain of Mast/stem cell growth factor receptor Kit (Homo sapiens), P10721 [D816V] (P10721 whole entry D816V): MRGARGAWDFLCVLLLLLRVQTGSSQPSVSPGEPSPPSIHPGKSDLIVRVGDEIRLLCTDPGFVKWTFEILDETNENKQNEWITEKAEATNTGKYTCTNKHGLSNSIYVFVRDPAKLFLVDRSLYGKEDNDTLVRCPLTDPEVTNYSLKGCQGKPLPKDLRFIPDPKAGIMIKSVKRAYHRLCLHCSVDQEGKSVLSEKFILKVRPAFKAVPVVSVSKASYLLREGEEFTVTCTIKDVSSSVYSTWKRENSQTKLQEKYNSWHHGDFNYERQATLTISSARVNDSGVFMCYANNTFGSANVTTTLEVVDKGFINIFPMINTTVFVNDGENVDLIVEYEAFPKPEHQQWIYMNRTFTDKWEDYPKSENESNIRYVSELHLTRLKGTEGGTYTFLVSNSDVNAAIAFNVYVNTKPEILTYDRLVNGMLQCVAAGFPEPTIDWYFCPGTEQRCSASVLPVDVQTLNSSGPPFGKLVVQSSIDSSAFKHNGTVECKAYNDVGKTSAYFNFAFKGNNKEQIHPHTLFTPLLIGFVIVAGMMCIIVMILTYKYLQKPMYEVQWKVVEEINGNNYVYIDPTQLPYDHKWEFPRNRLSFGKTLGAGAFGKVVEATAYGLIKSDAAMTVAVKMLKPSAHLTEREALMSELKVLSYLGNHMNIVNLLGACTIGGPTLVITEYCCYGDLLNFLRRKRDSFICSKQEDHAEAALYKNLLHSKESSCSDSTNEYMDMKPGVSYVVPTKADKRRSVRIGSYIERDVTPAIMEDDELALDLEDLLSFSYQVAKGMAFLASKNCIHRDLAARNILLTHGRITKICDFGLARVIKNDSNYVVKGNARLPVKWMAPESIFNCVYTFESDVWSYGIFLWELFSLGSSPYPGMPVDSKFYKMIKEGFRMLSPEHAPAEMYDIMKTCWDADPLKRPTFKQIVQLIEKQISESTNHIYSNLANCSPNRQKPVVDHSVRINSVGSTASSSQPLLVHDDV

[3] = target: Tyrosine-protein kinase ABL1 (Homo sapiens) (UniProt P00519); experiment: Inhibition of human recombinant non-phosphorylated ABL1 assessed as residual activity at 10 uM after 1 hr by qPCR analysis relative to control
[4] = target: Ribosomal protein S6 kinase alpha-3 (Homo sapiens) (UniProt P51812); experiment: Inhibition of human recombinant N-terminal RSK2 kinase domain 1 assessed as residual activity at 10 uM after 1 hr by qPCR analysis relative to control
[5] = target: Phosphatidylinositol 4,5-bisphosphate 3-kinase catalytic subunit alpha isoform (Homo sapiens) (UniProt P42336); experiment: Inhibition of human recombinant PIK3CA assessed as residual activity at 10 uM after 1 hr by qPCR analysis relative to control
Chain of Phosphatidylinositol 4,5-bisphosphate 3-kinase catalytic subunit alpha isoform (Homo sapiens) (P42336 whole entry, canonical isoform): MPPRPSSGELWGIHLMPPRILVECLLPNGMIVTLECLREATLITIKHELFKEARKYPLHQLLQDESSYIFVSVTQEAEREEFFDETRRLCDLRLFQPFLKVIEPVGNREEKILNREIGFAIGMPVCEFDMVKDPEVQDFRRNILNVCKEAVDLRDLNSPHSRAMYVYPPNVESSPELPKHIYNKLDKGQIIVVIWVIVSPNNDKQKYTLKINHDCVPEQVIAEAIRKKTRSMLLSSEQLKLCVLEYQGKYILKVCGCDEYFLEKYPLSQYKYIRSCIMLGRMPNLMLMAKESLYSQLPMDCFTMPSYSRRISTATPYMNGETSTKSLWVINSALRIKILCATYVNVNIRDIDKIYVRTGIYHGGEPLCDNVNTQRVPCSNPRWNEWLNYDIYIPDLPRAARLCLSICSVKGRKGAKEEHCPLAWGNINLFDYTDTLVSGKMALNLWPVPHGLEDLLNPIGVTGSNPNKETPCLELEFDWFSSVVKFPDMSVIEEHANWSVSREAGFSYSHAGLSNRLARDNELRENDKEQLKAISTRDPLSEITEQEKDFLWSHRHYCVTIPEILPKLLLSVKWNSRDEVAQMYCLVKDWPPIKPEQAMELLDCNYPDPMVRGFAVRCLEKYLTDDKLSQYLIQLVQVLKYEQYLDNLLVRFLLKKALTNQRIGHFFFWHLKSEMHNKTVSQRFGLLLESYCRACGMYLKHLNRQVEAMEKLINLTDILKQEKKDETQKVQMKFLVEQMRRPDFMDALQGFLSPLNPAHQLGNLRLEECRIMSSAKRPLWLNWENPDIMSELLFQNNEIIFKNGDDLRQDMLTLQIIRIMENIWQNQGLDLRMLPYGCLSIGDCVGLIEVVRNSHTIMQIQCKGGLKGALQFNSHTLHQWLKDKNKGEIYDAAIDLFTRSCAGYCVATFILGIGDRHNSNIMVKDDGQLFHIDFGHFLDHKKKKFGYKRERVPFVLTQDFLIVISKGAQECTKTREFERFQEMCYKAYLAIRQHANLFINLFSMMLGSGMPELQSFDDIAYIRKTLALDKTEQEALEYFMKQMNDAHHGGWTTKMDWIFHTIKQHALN

[6] = target: Cyclin-dependent kinase 16 (Homo sapiens) (UniProt Q00536); experiment: Inhibition of human recombinant PCTK1 assessed as residual activity at 10 uM after 1 hr by qPCR analysis relative to control
Chain of Cyclin-dependent kinase 16 (Homo sapiens) (Q00536 whole entry): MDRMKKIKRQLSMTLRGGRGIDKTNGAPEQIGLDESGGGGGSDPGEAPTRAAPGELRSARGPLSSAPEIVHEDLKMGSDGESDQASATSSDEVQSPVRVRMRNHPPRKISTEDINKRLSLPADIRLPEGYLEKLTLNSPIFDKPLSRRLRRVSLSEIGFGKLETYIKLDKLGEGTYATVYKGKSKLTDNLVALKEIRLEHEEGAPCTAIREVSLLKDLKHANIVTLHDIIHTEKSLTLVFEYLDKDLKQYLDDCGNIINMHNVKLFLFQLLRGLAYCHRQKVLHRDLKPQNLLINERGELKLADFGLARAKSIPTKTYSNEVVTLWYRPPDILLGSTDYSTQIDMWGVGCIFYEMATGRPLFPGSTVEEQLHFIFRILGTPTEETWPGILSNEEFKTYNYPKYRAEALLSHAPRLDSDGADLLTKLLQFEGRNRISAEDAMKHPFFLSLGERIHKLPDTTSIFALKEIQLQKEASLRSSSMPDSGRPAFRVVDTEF

[7] = target: Cyclin-dependent kinase 7 (Homo sapiens) (UniProt P50613); experiment: Inhibition of human recombinant CDK7 assessed as residual activity at 10 uM after 1 hr by qPCR analysis relative to control
[8] = target: NUAK family SNF1-like kinase 2 (Homo sapiens) (UniProt Q9H093); experiment: Inhibition of human recombinant SNARK assessed as residual activity at 10 uM after 1 hr by qPCR analysis relative to control
Chain of NUAK family SNF1-like kinase 2 (Homo sapiens) (Q9H093 whole entry): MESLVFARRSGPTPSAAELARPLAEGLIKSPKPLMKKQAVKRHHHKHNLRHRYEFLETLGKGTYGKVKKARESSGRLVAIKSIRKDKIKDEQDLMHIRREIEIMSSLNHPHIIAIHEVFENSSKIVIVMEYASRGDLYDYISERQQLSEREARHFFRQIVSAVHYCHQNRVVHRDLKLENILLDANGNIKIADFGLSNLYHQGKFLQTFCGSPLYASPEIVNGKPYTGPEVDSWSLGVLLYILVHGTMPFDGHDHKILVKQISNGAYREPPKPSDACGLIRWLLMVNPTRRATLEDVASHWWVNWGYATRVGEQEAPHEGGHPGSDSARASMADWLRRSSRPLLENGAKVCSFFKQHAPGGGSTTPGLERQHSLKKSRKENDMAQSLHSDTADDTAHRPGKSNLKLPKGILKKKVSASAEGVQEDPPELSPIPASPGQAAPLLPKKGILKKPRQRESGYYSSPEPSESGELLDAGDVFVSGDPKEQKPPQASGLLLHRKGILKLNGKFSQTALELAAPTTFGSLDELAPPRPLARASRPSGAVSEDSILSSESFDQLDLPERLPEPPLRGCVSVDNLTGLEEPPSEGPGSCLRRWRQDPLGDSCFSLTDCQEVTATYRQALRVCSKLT

[9] = target: Rho-associated protein kinase 2 (Homo sapiens) (UniProt O75116); experiment: Inhibition of human recombinant ROCK2 assessed as residual activity at 10 uM after 1 hr by qPCR analysis relative to control
[10] = target: Aurora kinase A (Homo sapiens) (UniProt O14965); experiment: Inhibition of human recombinant AURKA assessed as residual activity at 10 uM after 1 hr by qPCR analysis relative to control
Chain of Aurora kinase A (Homo sapiens) (O14965 whole entry): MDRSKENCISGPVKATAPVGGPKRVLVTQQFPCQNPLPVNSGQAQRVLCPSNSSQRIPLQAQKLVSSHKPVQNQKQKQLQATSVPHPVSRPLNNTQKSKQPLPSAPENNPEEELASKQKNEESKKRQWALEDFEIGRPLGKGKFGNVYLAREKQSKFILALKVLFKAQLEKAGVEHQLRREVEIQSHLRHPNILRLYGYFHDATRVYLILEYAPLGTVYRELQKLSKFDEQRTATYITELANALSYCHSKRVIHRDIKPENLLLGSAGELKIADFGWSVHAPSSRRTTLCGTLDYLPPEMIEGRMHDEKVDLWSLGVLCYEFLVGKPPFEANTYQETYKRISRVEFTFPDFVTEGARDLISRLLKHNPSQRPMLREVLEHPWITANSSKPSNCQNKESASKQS

[11] = target: 3-phosphoinositide-dependent protein kinase 1 (Homo sapiens) (UniProt O15530); experiment: Inhibition of human recombinant PDPK1 assessed as residual activity at 10 uM after 1 hr by qPCR analysis relative to control
Chain of 3-phosphoinositide-dependent protein kinase 1 (Homo sapiens) (O15530 whole entry): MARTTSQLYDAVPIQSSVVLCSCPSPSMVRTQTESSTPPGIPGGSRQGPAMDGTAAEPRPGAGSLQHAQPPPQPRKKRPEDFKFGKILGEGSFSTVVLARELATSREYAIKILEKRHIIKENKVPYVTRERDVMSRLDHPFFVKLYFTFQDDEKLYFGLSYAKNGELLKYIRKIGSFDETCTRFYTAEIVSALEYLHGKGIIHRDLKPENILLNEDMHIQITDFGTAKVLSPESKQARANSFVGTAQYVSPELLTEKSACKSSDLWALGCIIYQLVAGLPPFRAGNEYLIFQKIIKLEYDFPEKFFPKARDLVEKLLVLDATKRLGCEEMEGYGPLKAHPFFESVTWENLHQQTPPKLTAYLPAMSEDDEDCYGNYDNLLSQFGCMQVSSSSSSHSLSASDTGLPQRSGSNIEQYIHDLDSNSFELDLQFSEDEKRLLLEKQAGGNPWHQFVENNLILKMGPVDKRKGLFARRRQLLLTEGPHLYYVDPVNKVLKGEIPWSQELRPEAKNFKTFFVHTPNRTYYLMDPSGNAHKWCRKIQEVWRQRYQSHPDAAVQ

[12] = target: Protein kinase C epsilon type (Homo sapiens) (UniProt Q02156); experiment: Inhibition of human recombinant PRKCE assessed as residual activity at 10 uM after 1 hr by qPCR analysis relative to control
Chain of Protein kinase C epsilon type (Homo sapiens) (Q02156 whole entry): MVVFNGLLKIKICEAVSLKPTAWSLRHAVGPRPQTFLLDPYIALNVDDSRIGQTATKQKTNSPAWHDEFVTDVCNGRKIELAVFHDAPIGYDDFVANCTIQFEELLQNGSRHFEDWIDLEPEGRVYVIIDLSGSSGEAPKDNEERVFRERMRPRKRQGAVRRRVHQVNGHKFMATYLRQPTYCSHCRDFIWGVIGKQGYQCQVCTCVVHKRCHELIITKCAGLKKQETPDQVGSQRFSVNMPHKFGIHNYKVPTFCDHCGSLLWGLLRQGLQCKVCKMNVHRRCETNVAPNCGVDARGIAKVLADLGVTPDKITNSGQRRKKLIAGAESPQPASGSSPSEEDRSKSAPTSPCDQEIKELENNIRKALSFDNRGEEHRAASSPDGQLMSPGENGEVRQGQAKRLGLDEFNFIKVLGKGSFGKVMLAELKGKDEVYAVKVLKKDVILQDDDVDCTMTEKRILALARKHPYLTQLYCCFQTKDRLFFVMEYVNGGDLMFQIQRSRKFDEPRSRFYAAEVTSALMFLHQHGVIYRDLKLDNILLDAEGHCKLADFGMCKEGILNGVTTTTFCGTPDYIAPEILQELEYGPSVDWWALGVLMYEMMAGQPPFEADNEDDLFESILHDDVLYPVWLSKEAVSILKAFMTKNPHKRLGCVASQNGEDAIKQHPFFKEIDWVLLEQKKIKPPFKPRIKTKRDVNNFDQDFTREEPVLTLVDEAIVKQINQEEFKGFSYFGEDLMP

Cc1c(Cl)cccc1NC(=O)c1sc2nc3c(cc2c1N)C(=O)CC3
Activity [1]: 73% | Activity [2]: 93% | Activity [3]: 98% | Activity [4]: 94% | Activity [5]: 100% | Activity [6]: 100% | Activity [7]: 99% | Activity [8]: 100% | Activity [9]: 100% | Activity [10]: 98% | Activity [11]: 100% | Activity [12]: 100%
